Columns and labels:
Assay in all cases: relative viability (nuclei count vs DMSO), 5 days (fraction); higher = more cells survive
BX 795 + Olaparib = compound: O=C(NCCCNc1nc(Nc2cccc(NC(=O)N3CCCC3)c2)ncc1I)c1cccs1 [BX 795] + O=C(c1cc(Cc2n[nH]c(=O)c3ccccc23)ccc1F)N1CCN(C(=O)C2CC2)CC1 [Olaparib] (partner 8 µM)
How it was run: (§1)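 Lung cancer cell lines in 1536-well plates got either a single drug or a fixed anchor-drug dose together with five library-drug doses (not always all listed) in √10 steps, by pin tool, on the day after seeding. Nuclei were counted after 5 days, and relative viability is the treated-to-vehicle ratio of nuclei counts. Values are medians of duplicate plates.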

BX 795 + Tozasertib = compound: O=C(NCCCNc1nc(Nc2cccc(NC(=O)N3CCCC3)c2)ncc1I)c1cccs1 [BX 795] + Cc1cc(Nc2cc(N3CCN(C)CC3)nc(Sc3ccc(NC(=O)C4CC4)cc3)n2)n[nH]1 [Tozasertib] (partner 0.1 µM)
How it was run: as §1

BX 795 + Phenformin = compound: O=C(NCCCNc1nc(Nc2cccc(NC(=O)N3CCCC3)c2)ncc1I)c1cccs1 [BX 795] + N=C(N)NC(=N)NCCc1ccccc1 [Phenformin] (partner 250 µM)
How it was run: as §1

BX 795 + Trametinib = compound: O=C(NCCCNc1nc(Nc2cccc(NC(=O)N3CCCC3)c2)ncc1I)c1cccs1 [BX 795] + CC(=O)Nc1cccc(-n2c(=O)n(C3CC3)c(=O)c3c(Nc4ccc(I)cc4F)n(C)c(=O)c(C)c32)c1 [Trametinib] (partner 0.02 µM)
How it was run: as §1

BX 795 + Alpelisib = compound: O=C(NCCCNc1nc(Nc2cccc(NC(=O)N3CCCC3)c2)ncc1I)c1cccs1 [BX 795] + Cc1nc(NC(=O)N2CCC[C@H]2C(N)=O)sc1-c1ccnc(C(C)(C)C(F)(F)F)c1 [Alpelisib] (partner 2 µM)
How it was run: as §1

Cell Line | relative viability (BX 795 + Olaparib; first compound 0.04 µM) | relative viability (BX 795 + Olaparib; first compound 0.1265 µM) | relative viability (BX 795 + Olaparib; first compound 0.4 µM) | relative viability (BX 795 + Olaparib; first compound 1.265 µM) | relative viability (BX 795 + Tozasertib; first compound 0.04 µM) | relative viability (BX 795 + Tozasertib; first compound 0.1265 µM) | relative viability (BX 795 + Tozasertib; first compound 0.4 µM) | relative viability (BX 795 + Tozasertib; first compound 1.265 µM) | relative viability (BX 795 + Phenformin; first compound 0.04 µM) | relative viability (BX 795 + Phenformin; first compound 0.1265 µM) | relative viability (BX 795 + Phenformin; first compound 0.4 µM) | relative viability (BX 795 + Phenformin; first compound 1.265 µM) | relative viability (BX 795 + Trametinib; first compound 0.04 µM) | relative viability (BX 795 + Trametinib; first compound 0.1265 µM) | relative viability (BX 795 + Trametinib; first compound 0.4 µM) | relative viability (BX 795 + Trametinib; first compound 1.265 µM) | relative viability (BX 795 + Alpelisib; first compound 0.04 µM) | relative viability (BX 795 + Alpelisib; first compound 0.1265 µM) | relative viability (BX 795 + Alpelisib; first compound 0.4 µM) | relative viability (BX 795 + Alpelisib; first compound 1.265 µM)
COR-L 105 | 0.705 | 0.491 | 0.644 | 0.562 | 0.391 | 0.362 | 0.405 | 0.267 | 0.42 | 0.531 | 0.407 | 0.351 | 0.47 | 0.403 | 0.389 | 0.421 | 1.08 | 0.84 | 0.745 | 0.412
NCI-H1355 | 0.827 | 0.663 | 0.806 | 0.571 | 0.589 | 0.442 | 0.486 | 0.385 | 0.491 | 0.455 | 0.465 | 0.357 | 0.427 | 0.344 | 0.44 | 0.362 | 0.833 | 0.808 | 0.914 | 0.781
NCI-H2009 | 0.717 | 0.632 | 0.575 | 0.355 | 0.705 | 0.714 | 0.678 | 0.381 | 0.492 | 0.447 | 0.447 | 0.305 | 0.264 | 0.227 | 0.274 | 0.179 | 1.14 | 1.06 | 1.34 | 0.836
HCC-827 | 0.448 | 0.621 | 0.525 | 0.639 | 0.416 | 0.45 | 0.429 | 0.417 | 0.448 | 0.372 | 0.414 | 0.387 | 0.54 | 0.539 | 0.575 | 0.551 | 1.02 | 0.975 | 1.02 | 0.924
NCI-H2085 | 0.827 | 0.833 | 0.914 | 0.72 | 0.797 | 0.84 | 0.771 | 0.66 | 0.73 | 0.83 | 0.699 | 0.606 | 0.645 | 0.512 | 0.669 | 0.484 | 1.09 | 0.98 | 1.14 | 0.863
RERF-LC-KJ | 0.919 | 0.963 | 0.945 | 0.409 | 0.599 | 0.501 | 0.445 | 0.217 | 0.473 | 0.424 | 0.452 | 0.282 |  | 0.962 | 0.878 | 0.788 | 0.73 | 0.938 | 0.818 | 0.742
ChaGo-K-1 | 0.424 | 0.447 | 0.415 | 0.311 | 0.175 | 0.226 | 0.205 | 0.212 | 0.449 | 0.471 | 0.494 | 0.472 | 0.924 | 0.907 | 0.885 | 0.75 |  |  |  | 
NCI-H1734 | 0.612 | 0.662 | 0.501 | 0.514 | 0.243 | 0.23 | 0.238 | 0.216 | 0.419 | 0.375 | 0.402 | 0.307 | 0.714 | 0.651 | 0.69 | 0.562 | 0.699 | 0.658 | 0.708 | 0.424
LK-2 | 0.769 | 0.883 | 0.739 | 0.641 | 0.164 | 0.185 | 0.16 | 0.175 | 0.501 | 0.485 | 0.503 | 0.444 | 0.757 | 0.837 | 0.583 | 0.629 | 1.1 | 1.07 | 0.952 | 1.03
NCI-H522 | 0.616 | 0.586 | 0.692 | 0.658 | 0.57 | 0.603 | 0.544 | 0.569 | 0.645 | 0.643 | 0.681 | 0.668 | 0.84 | 0.781 | 0.803 | 0.616 |  |  |  | 
NCI-H1395 | 0.452 | 0.468 | 0.449 | 0.501 | 0.698 | 0.721 | 0.601 | 0.72 | 0.471 | 0.462 | 0.458 | 0.431 | 1.05 | 1.06 | 0.52 | 0.925 | 1.3 | 0.956 | 0.663 | 0.809
NCI-H661 | 0.742 | 0.826 | 0.662 | 0.583 | 0.374 | 0.369 | 0.378 | 0.412 | 0.261 | 0.245 | 0.274 | 0.238 | 0.62 | 0.583 | 0.55 | 0.564 | 0.85 | 0.834 | 0.686 | 0.704
SW 900 | 0.755 |  | 1.25 | 0.775 | 0.571 | 0.549 | 0.657 | 0.233 | 0.478 | 0.627 | 0.613 | 0.693 | 0.819 |  | 0.99 | 0.706 |  |  |  | 
ABC-1 | 1.07 |  | 0.962 | 0.526 | 0.193 | 0.151 | 0.145 | 0.148 | 0.263 | 0.265 | 0.262 | 0.195 |  |  |  |  | 1.17 | 1.25 | 0.911 | 0.764
NCI-H1650 | 0.903 | 0.713 | 0.711 | 0.814 | 0.548 | 0.425 | 0.377 | 0.25 | 0.484 | 0.417 | 0.393 | 0.239 | 0.6 | 0.493 | 0.551 | 0.504 |  |  |  | 
NCI-H1792 | 0.401 |  | 0.302 | 0.422 |  |  |  |  | 0.431 | 0.463 | 0.216 | 0.178 | 0.425 |  | 0.525 | 0.509 | 0.705 | 0.904 | 0.706 | 0.572
NCI-H2342 | 0.497 | 0.448 | 0.479 | 0.357 | 0.579 | 0.471 | 0.507 | 0.46 | 0.643 | 0.515 | 0.538 | 0.544 | 0.796 | 0.774 | 0.892 | 0.766 |  |  |  | 

— the supplement of paper PMC10307832
